Measurements published in US20240373849A1, “INSECT NEUROPEPTIDE ANALOGUES” (THE UNIVERSITY COURT OF THE UNIVERSITY OF GLASGOW, priority 2020, published 2024).
Values belong to the molecule of their own block, whether it stands above or below them. Square brackets hold non-standard residues; d marks the D form. NMeL = CN[C@@H](CC(C)C)C(=O)O; NMeV = CN[C@H](C(=O)O)C(C)C; NMeA = CN[C@@H](C)C(=O)O; Aib = CC(C)(N)C(=O)O

Columns and labels:
[1] = test system: Drosophila suzukii larvae; assay: Drosophila suzukii larval feeding (Example 8; peptide screening); assay type: in vivo; settings: for Feeding D. suzukii, % lethality in population after adjustment for baseline: 10^−5 M, 48 hr exposure
Experimental: (§1) First to Fourth generations of peptides were produced with varying structures and tested for CAPA receptor agonist activity, and screened for lethality in vivo against D. suzukii and M. persicae as per methods in example 2 and example 8. The top performing peptides were selected and gave rise to the list of CAPA1 and CAPA2 peptides provided above in Table 1 which were then further tested in the following applied examples.
Peptides were tested at concentrations ranging from [10^−4 M] to [10^−7 M] in a final volume of 200 μl of 0.8% agarose containing 0.09% m-Cresol purple pH marker dye (Sigma) and 5% sucrose (Sigma).
Agarose was melted in dH2O, before addition of sucrose and dye. The agarose/dye solution was then allowed to cool to 60° C. 96 well plates (flat-bottomed 3596 TC-plates; Corning) containing 20 μl volumes of neuropeptide per well were prepared, and 180 μl agarose/dye solution dispensed into each well via a Distriman repetitive micro-pipettor (Gilson). Controls contained 20 μl dH2O as a ‘sham’ treatment with 180 μl of the 0.8% agarose/dye solution. Plates were agitated at 800 rpm, to ensure mixing, at 60° C. (Eppendorf Thermomixer C). Plates were then allowed to cool, and agarose/dye solution solidify, prior to use.
Each peptide was assayed with a minimum of 7 to maximum 9 late L2/early L3 Spotted wing Drosophila, Drosophila suzukii, (feeding) larvae per well, minimum n=8 wells per peptide concentration and a minimum n=12 control wells per plate. The selected larvae were first washed 2× in ice cold Drosophila Schneider's liquid medium (ThermoFisher) before insertion into wells to remove extraneous food. After complete insertion of all larvae the plates were covered with breathable sealing membrane for multi-well plates (Sigma).
Larvae were assayed for lethality after 48 hr exposure at 21° C. and findings recorded. During examination the assay plate was kept on ice, to reduce larval locomotor activity (wandering), and larvae in each well were examined using a binocular stereomicroscope (Zeiss).
The water control group was used to determine baseline lethality. Results for neuropeptide analogues were calculated as % lethality in the remaining population after adjustment for the baseline. Results are shown in Tables 7 and 8 below, and in FIG. 1.

[2] = test system: D. suzukii larvae; assay: Drosophila suzukii larval feeding (Example 9; dose response); assay type: in vivo; settings: for % Lethality ± SEM: Table 6, 10^−5 M, 48 hr and/or 72 h exposure (FIG. 7: AH270/PEGAH270 120 h)
Experimental: Dose response experiments were carried out for AH382, AH383, AH188, data shown for AH382 (a), AH383 (b), AH188 (c, 48 hours). Data are mean % lethality ±SEM for concentrations between 10^−4 M and 10^−7 M (a) AH382, (b) AH383 72 hours treatment; and between 10^−5 M and 10^−9 M (AH188, 3c), 48 hours treatment. The LD50 for AH382, AH383 and AH188 is 10^−6 M.
Further larval feeding assays with D. suzukii larvae were conducted as explained above in example 7. A total of 88 peptides were tested against D. suzukii larvae in 96 well plates at 10^−5 M in a final volume of 200 μl of 0.8% agarose containing 0.09% m-Cresol purple pH marker dye (Sigma) and 5% sucrose (Sigma). Controls contained dH2O (18% lethality) or native Capa-2 peptide (38% lethality) as a ‘sham’ treatment. Each peptide was assayed with a minimum of 7 to maximum 9 late L2/early L3 larvae per well, minimum n=8 wells per peptide concentration (minimum 56 larvae) and a minimum n=12 control wells (minimum 84 larvae) per plate. Larvae were assayed for lethality after 48 hr and/or 72 h exposure at 21° C. using a binocular stereomicroscope and findings recorded. Candidate peptides were also tested between 10^-4 and 10^-7 M (dose response curve).
Candidate peptides for D. suzukii with 70%-90% lethality are indicated below, in Table 6.

[3] = test system: M. persicae; assay: Feeding of aphids with peptides in artificial diet (Example 1); assay type: in vivo, Myzus persicae
Experimental: A standard artificial diet for M. persicae was produced as described in Van Emden (2009) and provided the basal diet to which peptides were added for screening purposes. Peptides were diluted individually in the artificial diet to a pre-determined concentration.
Feeding apparatus were constructed using a set-up developed by Sadeghi et al (2009). For this, a piece of Parafilm was stretched over a Plexiglas ring (h=4 cm, Ø=3 cm) and 100 μl of the artificial diet containing the desired neuropeptide analogue was pipette onto the Parafilm membrane. A second piece of Parafilm, stretched to 4 times the original thickness, was stretched over the original layer, sandwiching the artificial diet between two layers of Parafilm. A strip of Parafilm was wrapped around the circumference of the Plexiglas ring, sealing in the diet. A plastic ring (h=1.2 cm, Ø=3.4 cm) was subsequently placed over the Parafilm layer, creating a walled chamber in which to house test aphids in contact with the Parafilm layer containing the artificial diet. Finally, a small Petri dish (h=1 cm, Ø=3.6 cm), modified for ventilation with net cloth, was placed on top of each feeding apparatus to prevent aphid escape.
To obtain aphids for use in experiments, reproducing anholocyclic adults were placed on individual excised leaves of Chinese cabbage at densities of 5 adults per leaf and allowed to reproduce for 24 h. The stem of each excised leaf was held within a 0.5 mL Eppendorf tube containing water via a punctured hole in the Eppendorf lid, and placed individually within a microcage (L=4 cm, Ø=9.5 cm). Following 24h, adults were removed and resultant first instar nymphs (<1 day old and synchronised in age to within 24h) retained. Nymphs were allowed to develop on the Chinese cabbage for 5 days. On day 5, (3rd instar) nymphs were transferred onto the artificial diet containing a neuropeptide analogue at densities of 1 per feeding chamber and monitored daily until death. Aphids were transferred to fresh artificial diet (containing neuropeptide analogue or water control) every 5 days.
The water control group was used to determine baseline lethality. Results for neuropeptide analogues were calculated as % lethality in the remaining population after adjustment for the baseline.

[4] = test system: M. persicae; assay: Feeding of aphids with peptides in artificial diet (Example 2; peptide screening, honeydew); assay type: in vivo, Myzus persicae
From the text: as §1
The aphid feeding protocol was devised according to Sadeghi et al (2009) as explained in example 1. Feeding discs were designed and manufactured as above. A standard sucrose-based artificial diet for M. persicae (30 aphids per chamber, 3 chambers per experiment unless otherwise stated) was produced as described in example 1 (Sadeghi et al, J. Insect Science, 2009) and provided the basal diet to which peptides were added for screening purposes. Peptides were diluted individually in the artificial diet to 10^−5 M. Lethality was scored after up to 120 hours (IRAC guidelines for aphid testing).
Membrane discs were also included to collect ‘honeydew’ secreted by feeding aphids and stained with ninhydrin to observe feeding patterns.
Comparison of purple stain in controls to treated aphids, show there is very little colour on many membranes where peptides were added.
Capa peptides cause mortality in M. persicae via feeding: At 120 hours, AH383 and AH387 peptides induce ˜60% mean (and median) lethality. Although mean lethality is lower with AH270/PEGAH270 (40%), 100% lethality is observed in one sample of 30 insects (AH270); and 90% in at least one sample of each of AH383, AH387 and PEGAH270 (FIG. 3). Note that PEGAH270 is a pegylated form of peptide AH270.

[5] = test system: Myzus persicae aphids; assay: Topical application by spraying, Potter Spray Tower (Example 3); assay type: in vivo; settings: 48 hours post spray
Experimental: Aphids were exposed to test peptides in the absence of additional external stress conditions.
Brassica rapa (Chinese cabbage; Wong Bok) were infested with 30 adult Myzus persicae aphids per plant. Aphids were left at least 2 hours to settle and begin feeding from the host plant.
Potter Spray Tower (Burkard Manufacturing) was ‘primed’ by spraying 1000 μl of liquid coating the inside of the tower. Vehicle spray only (Croda ATPlus UEP 100 LQ-(CQ) 0.1% v/v) was used as a control.
Spray volumes for all solutions were 3000 μl. […] After spraying was completed the plant was allowed to rest on the spray platform for 30 seconds to allow settling of the sprayed chemical.
Post peptide application, each condition was placed into its own individual Bugdorm (Watkins and Doncaster, 44545), to prevent repulsed or displaced aphids moving from one condition to another. Numbers of alive and dead aphids on the plant were counted 48 hours post spray, and the presence of any fresh nymphs noted. Plants were watered prior to spraying but not afterwards to eliminate the possibility of drowning any aphids present or washing off the sprayed liquid.
The vehicle control group was used to determine baseline lethality. Results for neuropeptide analogues were calculated as % lethality in the remaining population after adjustment for the baseline.

[6] = target: T1, Drosophila melanogaster capa GPCR, capaR (Drosophila melanogaster, UniProt Q8ITC7 1-477); assay: cell-based or functional assay
T1 sequence (looked up): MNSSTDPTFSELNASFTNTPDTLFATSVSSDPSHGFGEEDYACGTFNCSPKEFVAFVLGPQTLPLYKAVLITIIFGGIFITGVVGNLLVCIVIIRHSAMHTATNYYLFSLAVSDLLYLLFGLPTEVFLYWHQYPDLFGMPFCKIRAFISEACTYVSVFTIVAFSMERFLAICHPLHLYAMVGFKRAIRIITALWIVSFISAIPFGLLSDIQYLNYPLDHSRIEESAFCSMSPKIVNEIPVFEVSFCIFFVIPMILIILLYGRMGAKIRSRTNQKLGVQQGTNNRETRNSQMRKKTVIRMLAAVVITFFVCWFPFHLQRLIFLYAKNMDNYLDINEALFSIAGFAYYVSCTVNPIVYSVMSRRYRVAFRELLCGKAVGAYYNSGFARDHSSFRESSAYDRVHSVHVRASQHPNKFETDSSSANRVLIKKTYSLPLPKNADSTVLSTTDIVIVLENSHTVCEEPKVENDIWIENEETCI

Molecule: H-(Me)L-YAFARV-NH2 (H-[NMeL]YAFARV-NH2; SMILES CN[C@@H](CC(C)C)C(=O)N[C@@H](Cc1ccc(O)cc1)C(=O)N[C@@H](C)C(=O)N[C@@H](Cc1ccccc1)C(=O)N[C@@H](C)C(=O)N[C@@H](CCCNC(=N)N)C(=O)N[C@H](C(N)=O)C(C)C) [AH383]
Feeding D. suzukii, % lethality in population after adjustment for baseline [1]: 56%
LD50 ([2]; 72 hours treatment): 10^−6 M
% Lethality ± SEM [2]: 80 ± 3%
Feeding Aphid, % lethality in population after adjustment for baseline ([3]; 10^−5 M): 10%
mean lethality ([4]; M. persicae feeding, 10^−5 M, 120 hours): ~60%
lethality observed in one sample of 30 insects ([4]; M. persicae feeding, 10^−5 M, 120 hours, single sample): 90%
Spray Aphid, % lethality in population after adjustment for baseline ([5]; 10^−4 M): 42%
Spray Aphid, % lethality in population after adjustment for baseline ([5]; 10^−5 M): 13%

Molecule: H-LYAFARV-NH2 [AH188]
Feeding D. suzukii, % lethality in population after adjustment for baseline [1]: 71%
D. suzukii (Mean% Lethality ± SD) ([1]; Peptide screening, Table 5, blank control 20.33): 70.50%
D. suzukii (Sig Diff Grp) ([1]; Peptide screening, Table 5, difference in survival): ABC
LD50 ([2]; 48 hours treatment): 10^−6 M
% Lethality ± SEM [2]: 71 ± 6%
Feeding Aphid, % lethality in population after adjustment for baseline ([3]; 10^−4 M): 23%
Feeding Aphid, % lethality in population after adjustment for baseline ([3]; 10^−5 M): 23%
Feeding Aphid, % lethality in population after adjustment for baseline ([3]; 10^−5 M, @72 h): 1 (33%@72 h)
Feeding Aphid, % lethality in population after adjustment for baseline ([3]; 10^−6 M): 22%
Feeding Aphid, % lethality in population after adjustment for baseline ([3]; 10^−7 M): 17%
M. persicae (% Lethality) ([4]; Peptide screening, Table 5): 22%
Spray Aphid, % lethality in population after adjustment for baseline ([5]; 10^−4 M): 2%

CapaR Ca^2+ Agonist response at 10^-7 M [6]: 14 % of native Capa1 activity
B1: AH380 (H-LYAFAR-(Me)V-NH2) (peptide)
peptide: H-LYAFAR[NMeV]-NH2
SMILES: CC(C)C[C@H](N)C(=O)N[C@@H](Cc1ccc(O)cc1)C(=O)N[C@@H](C)C(=O)N[C@@H](Cc1ccccc1)C(=O)N[C@@H](C)C(=O)N[C@@H](CCCNC(=N)N)C(=O)N(C)[C@H](C(N)=O)C(C)C

CapaR Ca^2+ Agonist response at 10^-7 M [6]: 64 % of native Capa1 activity
Molecule: H-LYAFARV-NH2 [AH188 (H-LYAFARV-NH2)]

CapaR Ca^2+ Agonist response at 10^-7 M [6]: 26 % of native Capa1 activity
B2: AH383 (H-(Me)L-YAFARV-NH2) (peptide)
peptide: H-[NMeL]YAFARV-NH2
SMILES: CN[C@@H](CC(C)C)C(=O)N[C@@H](Cc1ccc(O)cc1)C(=O)N[C@@H](C)C(=O)N[C@@H](Cc1ccccc1)C(=O)N[C@@H](C)C(=O)N[C@@H](CCCNC(=N)N)C(=O)N[C@H](C(N)=O)C(C)C

CapaR Ca^2+ Agonist response at 10^-7 M [6]: 36 % of native Capa1 activity
B3: AH382 (H-LY-(Me)A-FARV-NH2) (peptide)
peptide: H-LY[NMeA]FARV-NH2
SMILES: CC(C)C[C@H](N)C(=O)N[C@@H](Cc1ccc(O)cc1)C(=O)N(C)[C@@H](C)C(=O)N[C@@H](Cc1ccccc1)C(=O)N[C@@H](C)C(=O)N[C@@H](CCCNC(=N)N)C(=O)N[C@H](C(N)=O)C(C)C

CapaR Ca^2+ Agonist response at 10^-7 M [6]: 17 % of native Capa1 activity
B4: AH387 (H-LY-Aib-FARV-NH2) (peptide)
peptide: H-LY[Aib]FARV-NH2
SMILES: CC(C)C[C@H](N)C(=O)N[C@@H](Cc1ccc(O)cc1)C(=O)NC(C)(C)C(=O)N[C@@H](Cc1ccccc1)C(=O)N[C@@H](C)C(=O)N[C@@H](CCCNC(=N)N)C(=O)N[C@H](C(N)=O)C(C)C
